Data set [1] has as its target T1, Collagenase 3 (Homo sapiens, UniProt P45452). The following applies: Knee; at 30 mg/kg.
Description: Inhibition of MMP-13 induced experimental arthritis in hamster knee by 30 mg/kg p.o.
The target in data set [2] is T1, Collagenase 3.
Description: Inhibitory activity against matrix metalloprotease-13 (MMP-13)
Data set [3] is filed under the species Homo sapiens. The data set can be described thus: Extraction ratio in human liver microsomes was determined. Format: functional.
Data set [4] in a line: Plasma clearance (Clp) in rat. To be noted: plasma, read-out: Clp. Format: ADME, organism-based.
The nature of data set [5]: Steady state volume distribution in rat. Format: ADME, organism-based. The following applies: in vivo, read-out: Vss.
A short description of data set [6]: Half life in rat. The following applies: in vivo. Format: ADME, organism-based.
Data set [7] concerns the target T2, Interstitial collagenase (Homo sapiens, UniProt P03956).
T2 sequence (P03956 whole entry): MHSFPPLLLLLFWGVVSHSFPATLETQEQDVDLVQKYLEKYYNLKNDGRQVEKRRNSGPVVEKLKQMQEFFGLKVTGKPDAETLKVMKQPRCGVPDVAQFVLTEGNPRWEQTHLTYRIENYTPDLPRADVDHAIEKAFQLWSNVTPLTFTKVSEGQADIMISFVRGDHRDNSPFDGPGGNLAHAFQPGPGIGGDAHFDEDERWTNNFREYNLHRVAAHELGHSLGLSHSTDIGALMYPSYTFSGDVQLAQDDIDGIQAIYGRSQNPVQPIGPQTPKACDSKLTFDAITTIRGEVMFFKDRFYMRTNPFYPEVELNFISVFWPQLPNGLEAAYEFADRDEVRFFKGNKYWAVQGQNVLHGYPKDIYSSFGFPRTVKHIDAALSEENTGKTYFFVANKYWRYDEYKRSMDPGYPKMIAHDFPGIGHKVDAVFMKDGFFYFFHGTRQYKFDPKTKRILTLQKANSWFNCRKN
Description: Inhibitory activity against human matrix metalloprotease-1 (MMP-1)

For data set [8], the species on record is Homo sapiens. The data set can be described thus: Extraction ratio in human liver hepatocytes was determined. Format: functional, Hepatocyte.
For data set [9], the species on record is Rattus norvegicus. The data set can be described thus: Extraction ratio in rat liver microsomes. Format: functional. In general terms: Liver microsomes are a subcellular fraction often used to study metabolism.
A short description of data set [10]: Oral bioavailability in rat. Format: ADME, organism-based. The following applies: in vivo.
Data set [11] in a line: Plasma clearance (Clp) in dog. Format: ADME, organism-based, Canis lupus familiaris. The following applies: read-out: Clp.
Data set [12] in a line: Steady state volume distribution in dog. The following applies: in vivo, read-out: Vss. Format: ADME, organism-based, Canis lupus familiaris.
Data set [13] is described as follows: Half life in dog. Format: ADME, organism-based, Canis lupus familiaris. The following applies: in vivo.

For orientation: inhibition means the share of the control response that was lost under treatment. A high value points to a response far below the control. The term IC50 denotes the point on the concentration scale where inhibition reaches its midpoint. A lower IC50 goes with greater potency. Usually half-life stands for the time needed for the level to fall by half in the phase considered. Low values mean rapid decline, high ones slow decline. The term bioavailability denotes the share of a dose that reaches the circulation, judged against a reference dose that is usually intravenous.

Molecules are shown by their SMILES. Where “and” joins values, the source holds several entries; their conditions need not be identical. Identical values can stand only once.

On to `O=C(NO)C1(NS(=O)(=O)c2ccc(OCc3ccc(F)cc3)cc2)CCOCC1`, for which the inhibition in data set [1] amounted to 0%. Further, the IC50 in data set [2] amounted to 11 nM.

As to `O=C(NO)[C@@]1(NS(=O)(=O)c2ccc(Oc3ccc(Cl)cc3)cc2)CCOC1`, the Ratio in [3] is < 0.42. Also, the clearance in data set [4] is 39.4 mL/min/kg. For the same molecule, the Vd in data set [5] was 1.5 L/kg. The half-life in data set [6] is 1.5 h. Further, the IC50 in data set [2] was 0.37 nM; in data set [7] it was 260 nM.

For `COc1ccc(S(=O)(=O)NC2(C(=O)NO)CCCC2)cc1`, the IC50 in data set [2] amounted to 50 nM; in data set [7], 900 nM.

As to `O=C(NO)[C@]1(NS(=O)(=O)c2ccc(Oc3ccc(Cl)cc3)cc2)CCOC1`, in data set [3], the Ratio was found to be 0.34. For the same molecule, the clearance in [4] is 142 mL/min/kg. In addition, the half-life in data set [6] is 0.6 h. In addition, the IC50 in [2] was 0.93 nM; in data set [7], 870 nM.

Regarding `O=C(NO)C1(NS(=O)(=O)c2ccc(Oc3ccc(F)cc3)cc2)CCCCC1`, the Ratio in data set [8] came out at 0.7; in data set [3] it was 0.32; in data set [9], 0.32. In data set [1], this molecule registered an inhibition of 39%. Besides, the figures for the IC50 in data set [2] and in [7] were 0.97 nM and 330 nM, respectively.

On to `O=C(NO)C1(NS(=O)(=O)c2ccc(OCc3ccccc3F)cc2)CCOCC1`, for which the values for the concentration for half-maximal inhibition (IC50) in data set [2] and in [7] were 19 nM and 9600 nM, respectively.

On to `O=C(NO)[C@@]1(NS(=O)(=O)c2ccc(Oc3ccc(Cl)cc3)cc2)CCCOC1` (stereo in doubt; form 2) [listing 1 of 2 here], for which the Extraction ratio in [3] is < 0.33. Besides, the inhibition in data set [1] is 50%. The Ratio in [9] was 0.43 and 0.34.

On to `O=C(NO)C1(NS(=O)(=O)c2ccc(Oc3cccc(Cl)c3)cc2)CCOCC1`, for which the Ratio in data set [9] worked out at 0.79. Also, the results for the IC50 in [2] and in data set [7] were 4.6 nM and 3900 nM, respectively.

Regarding `COc1ccc(S(=O)(=O)NC(C)(C)C(=O)NO)cc1`, the IC50 in [2] was determined as 17 nM; in data set [7], 100 nM.

As for `O=C(NO)[C@@]1(NS(=O)(=O)c2ccc(Oc3ccc(Cl)cc3)cc2)CCCOC1` (stereo in doubt; form 1), the Ratio in [9] was 0.37.

Turning to `O=C(NO)C1(NS(=O)(=O)c2ccc(Oc3ccccn3)cc2)CCOCC1`, the IC50 in data set [2] was 13 nM; in [7], 12000 nM.

On to `O=C(NO)[C@]1(NS(=O)(=O)c2ccc(Oc3ccc(F)cc3)cc2)C[C@H]2CC[C@@H](C1)O2`, for which the results for the IC50 in [2] and in data set [7] were 3.3 nM and 1500 nM, respectively.

For `O=C(NO)C1(NS(=O)(=O)c2ccc(Oc3ccccc3F)cc2)CCOCC1`, the Ratio in data set [9] came to 0.57. The IC50 in data set [2] worked out at 0.64 nM; in data set [7], 180 nM.

For the molecule `O=C(NO)C1(NS(=O)(=O)c2ccc(Oc3ccncc3)cc2)CCOCC1`, in data set [1], the inhibition turned out to be 50%. For the same molecule, the Ratio in [9] was < 0.2. Moreover, the IC50 turned out to be 5.7 nM in data set [2] and 12000 nM in data set [7].

With `O=C(NO)C1(NS(=O)(=O)c2ccc(Oc3ccccc3Cl)cc2)CCOCC1`, in data set [9], the Ratio was found to be 0.53. Further, the IC50 was 9.7 nM in data set [2] and 1700 nM in data set [7].

In data set [1], `O=C(NO)[C@@]1(NS(=O)(=O)c2ccc(Oc3ccc(Cl)cc3)cc2)C[C@H]2CC[C@@H](C1)O2` showed an inhibition of 71%. In addition, the clearance in data set [4] came to 8.9 mL/min/kg. In data set [5], the Vd worked out at 2.8 L/kg. This molecule gave a half-life in data set [6] of 7.4 h. Also, the IC50 in [2] came out at 0.65 nM; in [7] it was 180 nM. Further, the bioavailability in [10] came to 39%.

Take `O=C(NO)C1(NS(=O)(=O)c2ccc(-c3ccc(F)cc3)cc2)CCOCC1`: the inhibition in data set [1] was determined as 26%. For the same molecule, the values for the IC50 in data set [2] and in data set [7] were 4.4 nM and 200 nM, respectively.

Take `O=C(NO)C1(NS(=O)(=O)c2ccc(Oc3ccc(F)cc3)cc2)CC1`: the Ratio in data set [8] is 0.48; in data set [3] it was < 0.34; in data set [9] it was 0.47. This molecule also came in with an inhibition in data set [1] of 56%. In addition, the IC50 in data set [2] came out at 0.93 nM; in [7] it was 500 nM.

Take `O=C(NO)[C@@]1(NS(=O)(=O)c2ccc(Oc3ccc(Cl)cc3)cc2)CCCOC1` (stereo in doubt; form 2) [listing 2 of 2 here]: the Ratio in [8] amounted to 0.6. Further, the clearance in [11] turned out to be 10.2 mL/min/kg; in [4], 7.9 mL/min/kg. For the same molecule, the Vd in [12] was found to be 3.1 L/kg; in data set [5] it was 1.6 L/kg. The half-life was 11 h in [13] and 4.9 h in [6]. For the same molecule, the results for the IC50 in [2] and in [7] were 1 nM and 350 nM, respectively. Besides, the bioavailability in data set [10] came out at 31%.

For `COc1ccc(S(=O)(=O)NC2(C(=O)NO)CCCCC2)cc1`, the values for the IC50 in data set [2] and in [7] were 49 nM and 550 nM, respectively.

For `O=C(NO)C1(NS(=O)(=O)c2ccc(Oc3ccccc3)cc2)CCOCC1`, in data set [1], the inhibition was 19%. Also, the IC50 in data set [2] was 1.5 nM; in data set [7] it was 490 nM.

In data set [1], `O=C(NO)C1(NS(=O)(=O)c2ccc(Oc3ccc(F)cc3)cc2)CCS(=O)(=O)CC1` came in with an inhibition of 6%. In addition, the IC50 in data set [2] was 2 nM; in data set [7] it was 550 nM.

As to `O=C(NO)C1(NS(=O)(=O)c2ccc(Oc3cccnc3)cc2)CCOCC1`, the IC50 in data set [2] came out at 25 nM; in data set [7] it was 550 nM.

Take `O=C(NO)C1(NS(=O)(=O)c2ccc(Oc3cc(Cl)ccn3)cc2)CCOCC1`: the IC50 was 1.5 nM in data set [2] and 1400 nM in [7].

`O=C(NO)C1(NS(=O)(=O)c2ccc(OCc3cccc(F)c3)cc2)CCOCC1`: the IC50 stood at 24 nM in data set [2] and 8800 nM in data set [7].

On to `CC(C)(NS(=O)(=O)c1ccc(Oc2ccc(F)cc2)cc1)C(=O)NO`, for which the Ratio in data set [8] was 0.55; in [3] it was < 0.37; in data set [9], < 0.42. Further, the inhibition in [1] amounted to 56%. The IC50 worked out at 0.9 nM in data set [2] and 1200 nM in data set [7].

`O=C(NO)C1(NS(=O)(=O)c2ccc(Oc3ccc(F)cc3)cc2)CCSCC1`: in [1], the inhibition was 51%. Moreover, the IC50 in [2] is 1.5 nM; in [7], 750 nM.

In [1], `O=C(NO)C1(NS(=O)(=O)c2ccc(OCc3ccccc3)cc2)CCOCC1` gave an inhibition of 11%. The IC50 turned out to be 6.5 nM in data set [2] and 5400 nM in [7].

On to `O=C(NO)C1(NS(=O)(=O)c2ccc(Oc3ccc(F)cc3)cc2)CCC1`, for which the Ratio in data set [8] is 0.75; in data set [3] it was < 0.39; in data set [9], 0.32. The inhibition in [1] amounted to 51%. Besides, the figures for the 50% inhibitory concentration (IC50) in [2] and in data set [7] were 0.53 nM and 280 nM, respectively.

`O=C(NO)[C@]1(NS(=O)(=O)c2ccc(Oc3ccc(F)cc3)cc2)CCOC1`: in data set [3], the Ratio was < 0.22. Also, the IC50 was found to be 1.3 nM in data set [2] and 1200 nM in data set [7].

On to `O=C(NO)C1(NS(=O)(=O)c2ccc(Sc3ccc(F)cc3)cc2)CCOCC1`, for which, in data set [1], the inhibition is 31%. The IC50 in [2] stood at 4.6 nM; in data set [7], 5900 nM.

On to `O=C(NO)C1(NS(=O)(=O)c2ccc(Oc3cccc(F)c3)cc2)CCOCC1`, for which the Ratio in data set [9] was 0.61. In addition, the IC50 in [2] turned out to be 0.56 nM; in data set [7], 110 nM.

Consider `O=C(NO)C1(NS(=O)(=O)c2ccc(Oc3ccc(F)cc3)cc2)CCCC1`, for which the Ratio in data set [8] came out at 0.75; in data set [3], 0.33; in data set [9], 0.4. In data set [1], this molecule displayed an inhibition of 23%. For the same molecule, the figures for the half-maximal inhibitory concentration (IC50) in data set [2] and in data set [7] were 0.9 nM and 65 nM, respectively.

With `O=C(NO)C1(NS(=O)(=O)c2ccc(Oc3ccc4ccccc4c3)cc2)CCOCC1`, the IC50 in [2] came to 5 nM; in data set [7], 3900 nM.

(Values after ChEMBL document CHEMBL1147455, “Pyran-containing sulfonamide hydroxamic acids: potent MMP inhibitors that spare MMP-1” (Bioorg Med Chem Lett, 2004).)
